Experimental findings from patent US20180186769A1, “6-AMINO-5-FLUORO-5-(FLUOROMETHYL)-2,3,4,5-TETRAHYDROPYRIDIN-2-YL-PHENYL-5-(METHOXY-D3)-PYRAZINE-2-CARBOXAMIDES AND FLUORINATED DERIVATIVES THEREOF AS BACE1 INHIBITORS” (H. Lundbeck A/S, priority 2016, published 2018) are described below.

Series [1] can be described thus: Clearance in hepatocytes, rat. Format: in vitro ADME. The following applies: read-out: CLint, Rat (L/h/kg) ± SD (converted). The text has this:
(§1) Deuterated compounds were compared to their non-deuterated parent counterparts to determine the impact of deuteration on clearance results

Series [2] can be described thus: Clearance in hepatocytes, cyno. To be noted: cynomolgus monkey, read-out: CLint, Cyno (L/h/kg) ± SD (converted). The class given is in vitro ADME.
Excerpt: as §1

The target of series [3] is T1, BACE1 (Homo sapiens, UniProt P56817). Briefly: BACE1 binding assay (SPA-based). Also noted: biotin (biotinylated form); made in house; host or cells: Freestyle HEK293 cells. The following applies: pH 4.5, 10 nM radioligand. How it is done:
The binding assay was performed as SPA-based assay using a biotinylated form of human BACE1 recombinantly expressed and subsequently purified from Freestyle HEK293 cells. The binding assay was run in a 50 mM sodium acetate buffer, pH 4.5 containing 50 mM NaCl and 0.03% Tween-20 in white clear bottom 384 plates (Corning #3653). […] The plates were incubated for one hour at room temperature and counted in a Wallac Trilux counter. Total and non-specific binding were determined using buffer and 1 μM (final concentration) of the high affinity BACE1 reference inhibitor (S)-6-[3-chloro-5-(5-prop-1-ynyl-pyridin-3-yl)-thiophen-2-yl]-2-imino-3,6-dimethyl-tetrahydro-pyrimidin-4-one, respectively. For each test compound, a IC50 value (the concentration mediating 50% inhibition of the specific binding of the radioligand) was determined from concentration-response curve and used to calculate the Ki from the equation Ki=IC50/(1+L/Kd), where L and Kd are the final concentration of the radioligand used in the assay and the dissociation constant of the radioligand, respectively. The Kd of the radioligand was determined from saturation binding experiments.

Series [4] can be described thus: Clearance in hepatocytes, human. The class given is in vitro ADME. The following applies: read-out: CLint, Human (L/h/kg) ± SD (converted).
Excerpt: as §1

In series [5] the target is T1, BACE1. Description: BACE1 efficacy assay (FRET-based). The following applies: 10 μM test compound. Also on record: purchased Life Technologies P2985. The class given is biochemical. How it is done: The efficacy assay was performed as a FRET-based assay using a commercially available BACE1 kit (Life Technologies, P2985). 2 μl test compound at 10 μM (final concentration) and 15 μl BACE1 enzyme from the kit (final concentration 3 nM) were preincubated for 15 minutes at room temperature before addition of 15 μl of substrate from the kit (250 nM final concentration) and incubated for additional 90 minutes at room temperature. The assay plate was subsequently read in a Pherastar (Ex540/Em590). The enzyme activity observed in presence of test compound were normalized to the enzyme activity observed in presence of buffer and 10 μM (final concentration) of the high affinity BACE1 reference inhibitor (S)-6-[3-Chloro-5-(5-prop-1-ynyl-pyridin-3-yl)-thiophen-2-yl]-2-imino-3,6-dimethyl-tetrahydropyrimidin-4-one, respectively. The efficacy of the test compounds was evaluated at 10 μM (final concentration) and defined as the percent inhibition of the enzyme activity using the equation % inhibition=100%−normalized enzyme activity in percent.

Where only a bound is given, the exact number is not on record here.

T1 sequence (P56817 46-501): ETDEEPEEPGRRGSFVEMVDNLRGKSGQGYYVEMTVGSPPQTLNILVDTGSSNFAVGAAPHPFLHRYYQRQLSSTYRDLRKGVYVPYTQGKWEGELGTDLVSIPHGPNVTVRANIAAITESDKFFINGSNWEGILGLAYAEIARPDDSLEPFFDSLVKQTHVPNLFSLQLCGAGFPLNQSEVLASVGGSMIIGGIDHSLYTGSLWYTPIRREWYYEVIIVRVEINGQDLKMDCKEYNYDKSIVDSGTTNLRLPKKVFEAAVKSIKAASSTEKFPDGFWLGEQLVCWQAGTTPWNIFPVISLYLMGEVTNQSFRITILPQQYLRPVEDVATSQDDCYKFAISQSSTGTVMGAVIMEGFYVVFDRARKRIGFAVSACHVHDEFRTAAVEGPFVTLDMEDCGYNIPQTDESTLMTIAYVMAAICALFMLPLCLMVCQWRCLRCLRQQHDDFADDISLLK

What is called Ki is a measure of affinity in units of concentration, obtained from inhibition or displacement. A high value points to a looser hold on the target. In general, inhibition refers to the drop in the measured response relative to a control, in per cent. Read a low inhibition as a weak effect. As for `[2H]C([2H])([2H])Oc1cnc(C(=O)Nc2ccc(F)c([C@]3(C)CC[C@@](F)(CF)C(N)=N3)c2)cn1` [Example 1, N-(3-((2S,5S)-6-amino-5-fluoro-5-(fluoromethyl)-2-methyl-2,3,4,5-tetrahydropyridin-2-yl)-4-fluorophenyl)-5-(methoxy-d3)pyrazine-2-carboxamide], the CLint scaled at 0.1 µM was 1.5 L/h/kg in series [1] (0.1 microM), 75 L/h/kg in series [2] (0.1 microM) and < 0.1 L/h/kg in series [4] (0.1 microM). Moreover, the values for the CLint scaled at 0.3 µM in series [1] (0.3 microM), in series [2] (0.3 microM) and in series [4] (0.3 microM) were 1.2 L/h/kg, 74 L/h/kg and < 0.1 L/h/kg, respectively. Further, the results for the CLint scaled at 1 µM in series [1] (1 microM), in series [2] (1 microM) and in series [4] (1 microM) were < 0.4 L/h/kg, 20 L/h/kg and < 0.1 L/h/kg, respectively. Besides, on BACE1 [3], the Ki was determined as 0.017 µM. The same compound showed an inhibition at 10 µM at BACE1 [5] of 100%.
